Where a SMILES comes first, the peptide text is derived from it. Bridges are numbered along the chain shown (N, C = ends).
Legend:
porcine coronary artery = type: cell-based; conditions: for Constrictor activity (Relative potency): ET-1 = 100; for Maximum Constriction (% 60 mM KCl): normalized to constriction response to 60 mM KCl
Method: Each of helical strips 2 mm×15 mm prepared from the coronary right ramus circumflexus from which the adventitial connective tissues and the endothelial cells were removed was set to each of 4 ml organ baths. Its tension was detected by a force displacement transducer UL-10GR (Minebea), and recorded by a polygraph (NEC Sanei). The organ baths were maintained at 37° C., and filled with a Krebs-Henseleit solution (composition:118 mM NaCl, 4.7 mM KCl, 2.5 mM CaCl2, 1.2 mM KH2 PO4, 25.0 mM NaHCO3, 1.2 mM MgSO4, 10.0 mM glucose) gassed with 95% O2 and 5% CO2.
A tension of 1.25 to 1.5 g was applied to each of the strips, followed by equilibration for 1.5 hours. 60 mM KCl was repeatedly applied thereto at intervals of 30 minutes until the constriction response became constant. After additional equilibration for 1.5 hours, a sample for assay was given. The constriction of the strips was normalized by the constriction response of the individual strips to 60 mM KCl and statistically processed.
(2) As to the antagonist property or the agonist property of the peptide derivatives of present invention to endothelin, the affinity for an endothelin receptor and the constrictor activity to porcine coronary smooth muscles (according to the method described in (1) described above) were assayed. The affinity for the receptor was assayed by the following method.

endothelin receptor = test: Assay of affinity for receptor (I125-ET-1 binding to porcine myocardial membrane fraction); conditions: ET-1 = 100
Method: A membrane fraction prepared from the porcine heart was diluted to 0.15 mg/ml by using a buffer solution [PBS (pH 7.4) containing 0.5 mM CaCl2, 1.0 mM MgCl2, 0.02% NaN3, 0.1% BSA (fraction V, Sigma), 0.1 mM PMSF and 0.1 μg/ml pepstatin (binding buffer)] for assay, and 100 μl of the resulting suspension of the membrane fraction was poured into each assay tube to use for assay. To this suspension of the membrane fraction were added 2 μl of an endothelin-1 solution labeled with 5 μM radioactive iodine. Further, 3 μl of a test peptide solution was added thereto, followed by maintenance at a temperature of 25° C. for 1 hour. Then, the resulting suspension was diluted with 900 μl of the buffer solution for assay cooled with ice, and thereafter separated into a supernatant and a precipitate by centrifugation at 12,000×g for 10 minutes. Cell membranes and an endothelin receptor embedded therein were contained in the precipitate, and radioactive iodine-labeled endothelin combined with the receptor was also recovered in the precipitate. Accordingly, the amount of radioactive iodine-labeled endothelin combined with the endothelin receptor was determined by measuring the amount of radioactive iodine contained in the precipitate with a gamma-ray counter. Compounds in which the affinity for the endothelin receptor is high and the maximum constriction is not high are antagonists. Contrary to this, compounds in which the affinity for the endothelin receptor is high and the maximum constriction is high are agonists.

Row | SMILES | Receptor binding activity (Relative potency) (endothelin receptor) | EC50 (porcine coronary artery; read-out: EC50 (% KCL), concentration which induces 50% of the constriction due to 60 mM KCl) [nM] | Constrictor activity (Relative potency) (porcine coronary artery) | Maximum Constriction (% 60 mM KCl) (porcine coronary artery)
1 | CC[C@H](C)[C@H](NC(=O)[C@H](CC(=O)O)NC(=O)[C@H](CC(C)C)NC(=O)[C@H](Cc1c[nH]cn1)NC(=O)[C@@H]1CSSC[C@H](N)C(=O)N[C@@H](CO)C(=O)N[C@H]2CSSC[C@H](NC(=O)[C@H](CCC(=O)O)NC(=O)[C@H](CCCCN)NC(=O)[C@H](CC(=O)O)NC(=O)[C@H](CCSC)NC(=O)[C@H](CC(C)C)NC(=O)[C@H](CO)NC(=O)[C@H](CO)NC2=O)C(=O)N[C@@H](C(C)C)C(=O)N[C@@H](Cc2ccc(O)cc2)C(=O)N[C@@H](Cc2ccccc2)C(=O)N1)C(=O)N[C@H](C(=O)N[C@@H](Cc1c[nH]c2ccccc12)C(=O)O)[C@@H](C)CC [ET-1, endothelin-1, reference compound] | – | 1.6 | – | –
2 | CC[C@H](C)[C@H](NC(=O)[C@H](CC(=O)O)NC(=O)[C@H](CC(C)C)NC(=O)[C@H](Cc1c[nH]cn1)NC(=O)[C@@H]1CSSC[C@H](N)C(=O)N[C@@H](CO)C(=O)N[C@@H](Cc2c[nH]c3ccccc23)C(=O)N[C@@H](CO)C(=O)N[C@@H](CO)C(=O)N[C@@H](CC(C)C)C(=O)N[C@@H](CCSC)C(=O)N[C@@H](CC(=O)O)C(=O)N[C@@H](CCCCN)C(=O)N[C@@H](CCC(=O)O)C(=O)N[C@@H](C)C(=O)N[C@@H](C(C)C)C(=O)N[C@@H](Cc2ccc(O)cc2)C(=O)N[C@@H](Cc2ccccc2)C(=O)N1)C(=O)N[C@H](C(=O)N[C@@H](Cc1c[nH]c2ccccc12)C(=O)O)[C@@H](C)CC [Example 13, [Trp^3, Ala^11]-ET-1] (H-CSWSSLMDKEAVYFCHLDIIW-OH; disulfide 1-15) | 2.5 | – | < 0.1 | 6
3 | CC[C@H](C)[C@H](NC(=O)[C@H](CC(C)C)NC(=O)[C@H](CC(C)C)NC(=O)[C@H](Cc1c[nH]cn1)NC(=O)[C@@H]1CSSC[C@H](N)C(=O)N[C@@H](CO)C(=O)N[C@@H](C)C(=O)N[C@@H](CO)C(=O)N[C@@H](CO)C(=O)N[C@@H](CC(C)C)C(=O)N[C@@H](CCSC)C(=O)N[C@@H](CC(=O)O)C(=O)N[C@@H](CCCCN)C(=O)N[C@@H](CCC(=O)O)C(=O)N[C@@H](C)C(=O)N[C@@H](C(C)C)C(=O)N[C@@H](Cc2ccc(O)cc2)C(=O)N[C@@H](Cc2ccccc2)C(=O)N1)C(=O)N[C@H](C(=O)N[C@@H](Cc1c[nH]c2ccccc12)C(=O)O)[C@@H](C)CC [Example 22, [Ala^3,11, Leu^18]-ET-1] (H-CSASSLMDKEAVYFCHLLIIW-OH; disulfide 1-15) | 1.27 | – | < 0.1 | 3
4 | CC[C@H](C)[C@H](NC(=O)[C@H](Cc1ccccc1)NC(=O)[C@H](CC(C)C)NC(=O)[C@H](Cc1c[nH]cn1)NC(=O)[C@@H]1CSSC[C@H](N)C(=O)N[C@@H](CO)C(=O)N[C@@H](C)C(=O)N[C@@H](CO)C(=O)N[C@@H](CO)C(=O)N[C@@H](CC(C)C)C(=O)N[C@@H](CCSC)C(=O)N[C@@H](CC(=O)O)C(=O)N[C@@H](CCCCN)C(=O)N[C@@H](CCC(=O)O)C(=O)N[C@@H](C)C(=O)N[C@@H](C(C)C)C(=O)N[C@@H](Cc2ccc(O)cc2)C(=O)N[C@@H](Cc2ccccc2)C(=O)N1)C(=O)N[C@H](C(=O)N[C@@H](Cc1c[nH]c2ccccc12)C(=O)O)[C@@H](C)CC [Example 23, [Ala^3,11, Phe^18]-ET-1] (H-CSASSLMDKEAVYFCHLFIIW-OH; disulfide 1-15) | 1.27 | – | < 0.1 | 8

More lines, main results first:

Row | Receptor binding activity (Relative potency) (endothelin receptor) | SMILES | EC50 (porcine coronary artery; read-out: EC50 (% KCL), concentration which induces 50% of the constriction due to 60 mM KCl) [nM] | Constrictor activity (Relative potency) (porcine coronary artery) | Maximum Constriction (% 60 mM KCl) (porcine coronary artery)
5 | 1.59 | CC[C@H](C)[C@H](NC(=O)[C@H](C)NC(=O)[C@H](CC(C)C)NC(=O)[C@H](Cc1c[nH]cn1)NC(=O)[C@@H]1CSSC[C@H](N)C(=O)N[C@@H](CO)C(=O)N[C@@H](C)C(=O)N[C@@H](CO)C(=O)N[C@@H](CO)C(=O)N[C@@H](CC(C)C)C(=O)N[C@@H](CCSC)C(=O)N[C@@H](CC(=O)O)C(=O)N[C@@H](CCCCN)C(=O)N[C@@H](CCC(=O)O)C(=O)N[C@@H](C)C(=O)N[C@@H](C(C)C)C(=O)N[C@@H](Cc2ccc(O)cc2)C(=O)N[C@@H](Cc2ccccc2)C(=O)N1)C(=O)N[C@H](C(=O)N[C@@H](Cc1c[nH]c2ccccc12)C(=O)O)[C@@H](C)CC [Example 21, [Ala^3,11,18]-ET-1] (H-CSASSLMDKEAVYFCHLAIIW-OH; disulfide 1-15) | – | < 0.1 | 6
6 | 9.1 | CC[C@H](C)[C@H](NC(=O)[C@H](C)NC(=O)[C@H](CC(C)C)NC(=O)[C@H](Cc1c[nH]cn1)NC(=O)[C@@H]1CSSC[C@H](N)C(=O)N[C@@H](CO)C(=O)N[C@H]2CSSC[C@H](NC(=O)[C@H](CCC(=O)O)NC(=O)[C@H](CCCCN)NC(=O)[C@H](CC(=O)O)NC(=O)[C@H](CCSC)NC(=O)[C@H](CC(C)C)NC(=O)[C@H](CO)NC(=O)[C@H](CO)NC2=O)C(=O)N[C@@H](C(C)C)C(=O)N[C@@H](Cc2ccc(O)cc2)C(=O)N[C@@H](Cc2ccccc2)C(=O)N1)C(=O)N[C@H](C(=O)N[C@@H](Cc1c[nH]c2ccccc12)C(=O)O)[C@@H](C)CC [Example 25, [Ala^18]-ET-1] (H-CSCSSLMDKECVYFCHLAIIW-OH; disulfide 1-15, 3-11) | – | 7.8 | 62
7 | 2.4 | CC[C@H](C)[C@H](NC(=O)[C@H](CC(C)C)NC(=O)[C@H](CC(C)C)NC(=O)[C@H](Cc1c[nH]cn1)NC(=O)[C@@H]1CSSC[C@H](N)C(=O)N[C@@H](CO)C(=O)N[C@H]2CSSC[C@H](NC(=O)[C@H](CCC(=O)O)NC(=O)[C@H](CCCCN)NC(=O)[C@H](CC(=O)O)NC(=O)[C@H](CCSC)NC(=O)[C@H](CC(C)C)NC(=O)[C@H](CO)NC(=O)[C@H](CO)NC2=O)C(=O)N[C@@H](C(C)C)C(=O)N[C@@H](Cc2ccc(O)cc2)C(=O)N[C@@H](Cc2ccccc2)C(=O)N1)C(=O)N[C@H](C(=O)N[C@@H](Cc1c[nH]c2ccccc12)C(=O)O)[C@@H](C)CC [Example 26, [Leu^18]-ET-1] (H-CSCSSLMDKECVYFCHLLIIW-OH; disulfide 1-15, 3-11) | – | < 0.1 | 0
8 | 3.2 | CC[C@H](C)[C@H](NC(=O)[C@@H](NC(=O)[C@H](CC(C)C)NC(=O)[C@H](Cc1c[nH]cn1)NC(=O)[C@@H]1CSSC[C@H](N)C(=O)N[C@@H](CO)C(=O)N[C@H]2CSSC[C@H](NC(=O)[C@H](CCC(=O)O)NC(=O)[C@H](CCCCN)NC(=O)[C@H](CC(=O)O)NC(=O)[C@H](CCSC)NC(=O)[C@H](CC(C)C)NC(=O)[C@H](CO)NC(=O)[C@H](CO)NC2=O)C(=O)N[C@@H](C(C)C)C(=O)N[C@@H](Cc2ccc(O)cc2)C(=O)N[C@@H](Cc2ccccc2)C(=O)N1)C(C)C)C(=O)N[C@H](C(=O)N[C@@H](Cc1c[nH]c2ccccc12)C(=O)O)[C@@H](C)CC [Example 27, [Val^18]-ET-1] (H-CSCSSLMDKECVYFCHLVIIW-OH; disulfide 1-15, 3-11) | – | < 0.1 | 2
9 | 39.8 | CC[C@H](C)[C@H](NC(=O)CNC(=O)[C@H](CC(C)C)NC(=O)[C@H](Cc1c[nH]cn1)NC(=O)[C@@H]1CSSC[C@H](N)C(=O)N[C@@H](CO)C(=O)N[C@H]2CSSC[C@H](NC(=O)[C@H](CCC(=O)O)NC(=O)[C@H](CCCCN)NC(=O)[C@H](CC(=O)O)NC(=O)[C@H](CCSC)NC(=O)[C@H](CC(C)C)NC(=O)[C@H](CO)NC(=O)[C@H](CO)NC2=O)C(=O)N[C@@H](C(C)C)C(=O)N[C@@H](Cc2ccc(O)cc2)C(=O)N[C@@H](Cc2ccccc2)C(=O)N1)C(=O)N[C@H](C(=O)N[C@@H](Cc1c[nH]c2ccccc12)C(=O)O)[C@@H](C)CC [Example 28, [Gly^18]-ET-1] (H-CSCSSLMDKECVYFCHLGIIW-OH; disulfide 1-15, 3-11) | – | 43 | 99

— patent US5306808A, “Peptide derivatives having vasodilating activity” (Takeda Chemical Industries, Ltd., priority 1991, dated 1994)
